Data as given in patent EP2257297B1, “COMPOUNDS FOR USE IN THE TREATMENT OF ACNE, SEBORRHOEA AND SEBHORROEIC DERMATITIS, OR FOR REDUCING SEBUM SECRETION” (priority 2008, dated 2009).

What follows are compounds tested against T1, human MC5R (Homo sapiens, UniProt P33032) (assay: Human MC5R radioligand binding assay ([125I] NDP-MSH displacement, hMC5R membranes)). Settings: hMC5R assay as in Example 102; compounds tested as trifluoroacetate or hydrochloride salts, or as free base.
T1 construct: purchased Perkin Elmer RBXMC5M400UA
T1 sequence (P33032 whole entry): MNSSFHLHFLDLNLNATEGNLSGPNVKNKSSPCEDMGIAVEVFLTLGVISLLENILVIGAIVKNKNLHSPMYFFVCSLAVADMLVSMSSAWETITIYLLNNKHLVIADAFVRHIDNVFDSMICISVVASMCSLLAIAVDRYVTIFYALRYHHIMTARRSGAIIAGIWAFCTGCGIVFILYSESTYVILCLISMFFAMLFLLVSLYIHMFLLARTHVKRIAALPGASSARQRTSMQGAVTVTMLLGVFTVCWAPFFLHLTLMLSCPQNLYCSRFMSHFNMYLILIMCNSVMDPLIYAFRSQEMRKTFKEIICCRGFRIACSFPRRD
Procedure: After incubation for 10 mins the phosphate buffer containing the iodine was added to NDP-MSH (10 ul at 1 mg/mL) in a separate eppendorf tube. This was incubated for a further 10 mins.
Resuspended membranes were kept on ice until they were added to the wells of the plate.
Assays were performed in 96 well polypropylene plates. […] This was incubated for 1 hr at 37 °C. Non-specific binding was determined with […] NDP-MSH. Plates were filtered using a Tomtec cell harvester with GF/A filters (Wallac) (presoaked in 0.6% polyethylenimine) and washed three times with 1.0 mL ice-cold wash buffer (the above incubation buffer without 1,10-phenanthroline and Complete™ protease inhibitor tablet). The filters were dried in a 37 °C oven, placed in a sample bag and 5 mL Betaplatescint (Wallac) was added. Prepared filters were counted in cassettes in a Microbeta Trilux (Wallac) for 1 min. […] Data analysis was performed using GraphPad Prism 4, employing competition binding with a single site model and a fixed Hill coefficient. The following equation was used: Y = Bottom + (Top-Bottom)/1/10^(X-logEC50), where X = log(concentration) and Y = binding to fit the data.

| Structure (SMILES) | IC50 [nM] |
| --- | --- |
| NCCC[C@@H]1N[C@H](CNC(=O)c2ccc(-c3ccc(Cl)cc3)o2)CCN(CC(c2ccccc2)c2ccccc2)C1=O [Compound 237, N-(((3S,5S)-3-(3-aminopropyl)-1-(2,2-diphenylethyl)-2-oxo-1,4-diazepan-5-yl)methyl)-5-(4-chlorophenyl)furan-2-carboxamide] | < 100 |
| COc1c(C(=O)NC[C@@H]2CCN(CC(c3ccccc3)c3ccccc3)C(=O)[C@H](CCCNC(=N)N)N2)ccc2ccccc12 [Compound 156, N-(((3S,5S)-1-(2,2-diphenylethyl)-3-(3-guanidinopropyl)-2-oxo-1,4-diazepan-5-yl)methyl)-1-methoxy-2-naphthamide] | < 100 |
| NCCC[C@@H]1N[C@H](CNC(=O)/C=C/c2ccc(Br)cc2)CCN(CC(c2ccccc2)c2ccccc2)C1=O [Compound 260, (E)-N-(((3S,5S)-3-(3-aminopropyl)-1-(2,2-diphenylethyl)-2-oxo-1,4-diazepan-5-yl)methyl)-3-(4-bromophenyl)acrylamide] | < 100 |
| CCC(CN1CCC(CNC(=O)c2ccc3cc(Cl)ccc3c2)N[C@@H](C2CCN(CCC(C)C)CC2)C1=O)c1ccccc1 (stereo partly drawn) [Compound 473] | < 100 |
| O=C(/C=C/c1ccc(Cl)cc1)NC[C@@H]1CCN(CC(c2ccccc2)c2ccccc2)C(=O)[C@H](CCCN2CCCCC2)N1 [Compound 262, (E)-3-(4-chlorophenyl)-N-(((3S,5S)-1-(2,2-diphenylethyl)-2-oxo-3-(3-(piperidin-1-yl)propyl)-1,4-diazepan-5-yl)methyl)acrylamide] | < 100 |
| NCCCC[C@@H]1N[C@H](CNC(=O)c2cccc3ccccc23)CCN(Cc2ccc3ccccc3c2)C1=O [Compound 124, N-(((3S,5S)-3-(4-aminobutyl)-1-(naphthalen-2-ylmethyl)-2-oxo-1,4-diazepan-5-yl)methyl)-1-naphthamide] | < 10000 |
| N=C(N)NCCC[C@@H]1N[C@H](CNC(=O)C2CCCC2)CCN(CC(c2ccccc2)c2ccccc2)C1=O [Compound 151, N-(((3S,5S)-1-(2,2-diphenylethyl)-3-(3-guanidinopropyl)-2-oxo-1,4-diazepan-5-yl)methyl)cyclopentanecarboxamide] | < 10000 |
| O=C(NC[C@@H]1CCN(CC(c2ccccc2)c2ccccc2)C(=O)[C@H](CCN2CCCCC2)N1)c1ccc(Cl)c(Cl)c1 [Compound 284, 3,4-dichloro-N-(((3S,5S)-1-(2,2-diphenylethyl)-2-oxo-3-(2-(piperidin-1-yl)ethyl)-1,4-diazepan-5-yl)methyl)benzamide] | < 10 |
| N=C(N)NCCC[C@@H]1N[C@H](CNC(=O)/C=C/c2ccccc2Cl)CCN(CC(c2ccccc2)c2ccccc2)C1=O [Compound 189, (E)-3-(2-chlorophenyl)-N-(((3S,5S)-1-(2,2-diphenylethyl)-3-(3-guanidinopropyl)-2-oxo-1,4-diazepan-5-yl)methyl)acrylamide] | < 1000 |
| N=C(N)NCCC[C@@H]1N[C@H](CNC(=O)/C=C/c2c(F)cccc2Cl)CCN(CC(c2ccccc2)c2ccccc2)C1=O [Compound 209, (E)-3-(2-chloro-6-fluorophenyl)-N-(((3S,5S)-1-(2,2-diphenylethyl)-3-(3-guanidinopropyl)-2-oxo-1,4-diazepan-5-yl)methyl)acrylamide] | < 100 |
| O=C(NC[C@@H]1CCN(CC(c2ccccc2)c2ccccc2)C(=O)[C@H](CCCN2CCCCC2)N1)c1ccc(Cl)c(Cl)c1 [Compound 271, 3,4-dichloro-N-(((3S,5S)-1-(2,2-diphenylethyl)-2-oxo-3-(3-(piperidin-1-yl)propyl)-1,4-diazepan-5-yl)methyl)benzamide] | < 100 |
| NCCCC[C@@H]1N[C@H](CNC(=O)Cc2ccc3ccccc3c2)CCN(Cc2ccc3ccccc3c2)C1=O [Compound 123, N-(((3S,5S)-3-(4-aminobutyl)-1-(naphthalen-2-ylmethyl)-2-oxo-1,4-diazepan-5-yl)methyl)-2-(naphthalen-2-yl)acetamide] | < 10000 |
